Columns and labels:
[1] = system: Bradyrhizobium oligotrophicum ECU1212 resting cells; assay: Asymmetric oxidation of thioethers by whole resting cells; assay type: cell-based
Protocol: Optionally, resting cells harvested from the culture of Bradyrhizobium oligotrophicum ECU1212 are used to asymmetrically catalyze the oxidation of lansoprazole thioether to prepared (R)-lansoprazole under the conditions that the thioether substrate concentration is 0.1 g/L, the catalyst loading is 10 g/L, and the reaction is carried out at 30° C. under stirring at 180 rpm. The conversion rate of lansoprazole thioether can be up to 80%, and the optical purity can be up to 99% ee(R). it can be seen that the Bradyrhizobium oligotrophicum ECU1212 comprises functional enzyme(s) which serve to asymmetrically catalyze the oxidation and have a high catalytic conversion rate. Thus, it can solve the problem that the conventional bio-catalysts have low conversion rate in the asymmetric catalytic oxidation process. […]
To 100 ml Tris-HCl buffer (100 mmol/L, pH 9.0) was added 1 g of Bradyrhizobium oligotrophicum ECU1212 lyophilized cells (lyophilized cells prepared in accordance with Example 2), and thioanisole and methanol were added to a final concentration of 37 g/L, 10% (v/v). […] Then, the residue was dissolved in 0.5 ml isopropanol, and the solution was analyzed in accordance with the method of Example 7 for the conversion of reaction and the ee value of product. […]

Recombinant BoTEMO = assay: Asymmetric oxidation of thioethers by recombinant BoTEMO crude enzyme with glucose dehydrogenase recycling; assay type: biochemical, Bradyrhizobium oligotrophicum ECU1212; conditions: 25° C.
Protocol: The analysis is carried out with a high performance liquid chromatograph (HPLC) under the conditions of: a chiral OD-H column ([…], 5 μm particle size, Daicel), a mobile phase of n-hexane:isopropanol=93:7, a flow rate of 1 ml/min, and UV detection at 254 nm; or an AS-H column (250 mm×4.6 mm, 5 μm particle size, Daicel), a mobile phase of n-hexane:isopropanol=55:45, a flow rate of 0.5 mL/min, and UV detection at 254 nm.
To 0.5 ml potassium phosphate buffer (100 mmol/L, pH 9.0) was added 100 μL of crude enzyme solution of BoTEMO (the crude enzyme solution in accordance with the method of Example 5) and a crude enzyme solution of glucose dehydrogenase, and thioanisole, methanol, NADP^+ and glucose were added to the final concentration of 2 mmol/L, 10% (v/v), 0.2 mmol/L and 3.6 g/L, respectively. At 25° C. and 1000 rpm, the mixture was shaken for 1 h. After completion of reaction, 0.6 ml of ethyl acetate was added for extraction. The extract was dried over anhydrous sodium sulfate, and evaporated to remove the solvent. Then, the residue was dissolved in 0.5 ml of isopropanol. The mixture was analyzed in accordance with the method of Example 7 for measure the conversion of reaction and the ee value of product. The conversion of reaction was above 99%, and the ee value of product was above 99% (S).
To 0.5 ml of potassium phosphate buffer (100 mmol/L, pH 9.0) was added 100 μL crude enzyme solution of BoTEMO (the crude enzyme solution prepared in accordance with the method of Example 5) and a crude enzyme solution of glucose dehydrogenase, and omeprazole thioether, methanol, NADP^+ and glucose were added to the final concentrations of 0.2 mmol/L, 10% (v/v), 0.2 mmol/L and 3.6 g/L, respectively. At 25° C. and 1000 rpm, the mixture was shaken for 1 h. After completion of reaction, 0.6 ml of ethyl acetate was added for extraction. […] Then, the residue was dissolved in 0.5 ml isopropanol, and the solution was analyzed in accordance with the method of Example 7 for measuring the conversion of reaction and the ee value of product. […]
To 10 ml of potassium phosphate buffer (100 mmol/L, pH 9.0) was added 0.1 g of lyophilized crude enzyme powders of BoTEMO (crude enzyme powders prepared in accordance with the method of Example 5) and 0.02 g of lyophilized crude enzyme powder of glucose dehydrogenase (15 U/mg), and 1-3 g/L of omeprazole thioether/lansoprazole thioether/pantoprazole thioether/rabeprazle thioether/ilaprazole thioether, 10% (v/v) of methanol, 0.2 mmol/L of NADP^+ and 10 g/L of glucose were added. […] Then, the residue was dissolved in 0.5 ml of isopropanol, and the solution was analyzed in accordance with the method of Example 7 for measuring the conversion of reaction and the ee value of product. […]

BoTEMO-M2 = assay: Asymmetric oxidation of lansoprazole thioether by BoTEMO-M2; assay type: biochemical, Bradyrhizobium oligotrophicum ECU1212; conditions: BoTEMO-M2 powders in 100 ml, 3 g/L substrate, 25° C., 24 h
Protocol: (§1) To 100 ml Tris-HCl buffer (100 mmol/L, pH 9.0) was added lyophilized crude enzyme powders of BoTEMO-M2 and 0.2 g crude enzyme of glucose dehydrogenase. Lansoprazole thioether, methanol, NADP^+ and glucose were added to the final concentrations of 3 g/L, 10% (v/v), 0.2 mmol/L and 5.4 g/L, respectively. The reaction was stirred at 25° C. and 180 rpm for 24 h. When the lansoprazole thioether was asymmetrically catalytically oxidized to (R)-lansoprazole, the resultant conversion of the reaction was above 99%, and the ee value of product was above 99% (R).

BoTEMO-M1 = assay: Asymmetric oxidation of lansoprazole thioether by BoTEMO-M1; assay type: biochemical, Bradyrhizobium oligotrophicum ECU1212; conditions: 10 g/L substrate, 25° C., 24 h
Protocol: as §1, with “was added 1 g of lyophilized crude” for “was added lyophilized crude”, “powders of BoTEMO-M1 and 0.2” for “powders of BoTEMO-M2 and 0.2”, “concentrations of 10 g/L, 10%” for “concentrations of 3 g/L, 10%”, “mmol/L and 15 g/L, respectively.” for “mmol/L and 5.4 g/L, respectively.”
To 2 L Tris-HCl buffer (100 mmol/L, pH 9.0) was added 20 g lyophilized crude enzyme powders of BoTEMO-M1 and 4 g crude enzyme of glucose dehydrogenase. Lansoprazole thioether, methanol, NADP^+ and glucose were added to the final concentrations of 10 g/L, 10% (v/v), 0.2 mmol/L and 15 g/L, respectively. The reaction was stirred at 25° C. and 180 rpm for 24 h. When the lansoprazole thioether was asymmetrically catalytically oxidized to (R)-lansoprazole, the resultant conversion of reaction was above 99%, and the ee value of product was above 99% (R). Separation by extraction gave […] of the product (R)-lansoprazole, and the yield was 86%.

[2] = system: engineered cyclohexanone monooxygenase (CHMO); conditions: substrate loading 1.5 g/L, after 17 h; cited from earlier work
Lysinibacillus = conditions: substrate loading 0.1 g/L, after 48 fermentation cultivation; cited from earlier work

Question: Which results are given for `Cc1c(OCC(F)(F)F)ccnc1CSc1nc2ccccc2[nH]1` [lansoprazole thioether]?
Answer: conversion rate ([1]; substrate 0.1 g/L, catalyst loading 10 g/L, 30° C., 180 rpm): up to 80%; conversion of reaction (Recombinant BoTEMO; 0.2 g crude enzyme powders in 10 ml, 2 g/L substrate, 24 h): above 99%; conversion of the reaction (BoTEMO-M2): above 99%; conversion of the reaction (BoTEMO-M1; 1 g BoTEMO-M1 powders in 100 ml): above 99%; conversion of reaction (BoTEMO-M1; 20 g BoTEMO-M1 powders in 2 L): above 99%; conversion [2]: 1.2%

Question: For `COc1ccc2[nH]c(SCc3ncc(C)c(OC)c3C)nc2c1` [omeprazole thioether], which conversion (Lysinibacillus) is on record?
Answer: 77%

Question: And the conversion of reaction (Recombinant BoTEMO; 1 g crude enzyme powders in 100 ml, 1 g/L substrate, 3 h)?
Answer: above 99%

Question: And the conversion of reaction (Recombinant BoTEMO; crude enzyme solution, 0.2 mmol/L substrate, 1 h)?
Answer: above 99%

Question: Which results are given for `CSc1ccccc1` [thioanisole]?
Answer: conversion of reaction ([1]; 37 g/L substrate, 1 g lyophilized cells in 100 ml, 28° C., 24 h): above 99%; conversion of reaction (Recombinant BoTEMO; crude enzyme solution, 2 mmol/L substrate, 1 h): above 99%
